ChEMBL document CHEMBL1136040, “Specific accumulation and growth inhibitory effects of hybrid liposomes to hepatoma cells in vitro” (Bioorg Med Chem Lett, 2002)

System: HepG2
Test: Compound was tested for its inhibition on growth of human hepatoma cells (Hep-G2); No inhibitory effects was observed
Assay type: functional, cell-based

## CCCCCCCCCCCCCC(=O)OCC(COP(=O)([O-])OCC[N+](C)(C)C)OC(=O)CCCCCCCCCCCCC (configuration not stated)
  inhibition: No inhibition

## CCCCCCCCCCCCCC(=O)OCC(COP(=O)([O-])OCC[N+](C)(C)C)OC(=O)CCCCCCCCCCCNc1ccc([N+](=O)[O-])c2nonc12 (configuration not stated)
  inhibition: No inhibition
